Assay in all cases: growth of human tumour cells (NCI), 48 h
For assay [1], the system named is A498.
The subject of assay [2] is ACHN.
Assay [3] has as its system CCRF-CEM.
Assay [4] deals with COLO 205.
In assay [5] the test system is DU-145.
For assay [6], the system named is HCT-15.
Assay [7] deals with HL-60.
Assay [8] relates to HOP-92.
Assay [9] relates to HT-29.
Assay [10] relates to IGROV-1.
Assay [11] has as its system LXFL 529.
For assay [12], the system named is M14.
In assay [13] the test system is NCI-H226.
In assay [14] the test system is NCI-H522.
The test system of assay [15] is OVCAR-4.
Assay [16] relates to OVCAR-5.
For assay [17], the system named is SK-MEL-28.
The subject of assay [18] is SNB-75.
For assay [19], the system named is TK-10.
For assay [20], the system named is UO-31.

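A five-concentration, 48-hour dose response in 96-well plates underlies each endpoint, interpolated linearly between surrounding concentrations. GI50 is the concentration that inhibits growth by half.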 Calls of active or inactive are those of the source. Cut-off read from the data, not from the text of the source: active = GI50 up to about 1.1 µM and inactive = higher. Where only a bound is given, the exact number is not on record here.

The values that follow come from ChEMBL document CHEMBL1201862, “PubChem BioAssay data set” (2004).

With `CCCCCCCCCCCCCC(=O)CBr`, the GI50 in assay [1] was 17.4 µM (inactive); in assay [2], 15 µM (inactive); in assay [3], 0.467 µM (active); in [4] it was 14.9 µM (inactive); in assay [5], 18.6 µM (inactive); in assay [6] it was 11.1 µM. For the same compound, the GI50 in assay [7] was 1.03 µM (active); in [8] it was 2.36 µM (inactive); in assay [9], 15.9 µM (inactive); in [10], 5.79 µM (inactive); in assay [11], 3.72 µM (inactive); in assay [12], 10.8 µM (inactive). The GI50 in [13] is 17.4 µM (inactive); in assay [14], 1.84 µM (inactive); in assay [15], 14.2 µM (inactive); in [16], 22.1 µM (inactive); in assay [17], 16.5 µM (inactive); in assay [18], 6.03 µM (inactive). Moreover, the GI50 in assay [19] was 15.8 µM (inactive); in [20], 8.93 µM (inactive).

Take `CC(=O)OC(C)C1C2=C(C(=O)CC1(C)O)C(=O)c1c(ccc(-c3ccc4c(c3O)C(=O)C3=C(C4=O)C(C(C)OC(C)=O)C(C)(O)CC3=O)c1O)C2=O` (stereo unspecified): the GI50 in assay [1] is 2.86 µM (inactive); in assay [2], 1.73 µM (inactive); in assay [3], 0.308 µM (active); in assay [4], 0.692 µM (active); in [5], 5.78 µM (inactive); in assay [6], 2.58 µM. Besides, the GI50 in assay [7] was 0.398 µM (active); in assay [8] it was 1.57 µM (inactive); in [9], 1.72 µM (inactive); in assay [10] it was 9.12 µM (inactive); in assay [11], 0.428 µM (active); in assay [12], 2.11 µM (inactive). For the same compound, the GI50 in assay [13] is 9.33 µM (inactive); in [14] it was 1.56 µM (inactive); in assay [15] it was 2.24 µM (inactive); in assay [16], 5.97 µM (inactive); in [17], 2.12 µM (inactive); in [18] it was 2.49 µM (inactive). In addition, the GI50 in assay [19] was 2.19 µM (inactive); in [20] it was 3.35 µM (inactive).

Take `NCCc1ccc2oc3cc(=O)c4ccccc4c-3nc2c1`: the GI50 is 13.3 µM (inactive) in assay [1]; 2.61 µM (inactive) in [2]; 1.79 µM (inactive) in assay [3]; 0.428 µM (active) in [4]; 0.966 µM in [6]; 1.68 µM (inactive) in [7]. Besides, the GI50 in assay [8] is 7.71 µM (inactive); in assay [9], 1.82 µM (inactive); in assay [10], 2.59 µM (inactive); in assay [11], 2.58 µM (inactive); in assay [12], 1.71 µM (inactive); in assay [13] it was 5.19 µM (inactive). Moreover, the GI50 in [14] is 2.59 µM (inactive); in assay [15], 4.68 µM (inactive); in assay [16], 6.14 µM (inactive); in [17], 3.81 µM (inactive); in assay [18], 2.22 µM (inactive); in assay [19] it was 14 µM (inactive). Further, the GI50 in assay [20] was 2.14 µM (inactive).

With `Cn1cnc(CCc2ccccc2)n1`, the GI50 in assay [1] is > 100 µM (inactive); in assay [2], > 100 µM (inactive); in assay [3], > 100 µM (inactive); in assay [4], > 100 µM (inactive); in assay [6], over 100 µM; in assay [7] it was > 100 µM (inactive). Further, the GI50 in assay [8], in assay [9], in assay [10], in assay [11], in [12] and in assay [13] was > 100 µM (inactive) each time. In addition, the GI50 in [14], in assay [15], in assay [16], in assay [17], in [18] and in assay [19] was > 100 µM (inactive) each time. Also, in [20], the GI50 was > 100 µM (inactive).

In the case of `Cc1cc(N(CCC#N)CCC#N)ccc1/C=C\C(=O)Nc1ccccc1`, the GI50 is > 100 µM (inactive) in assay [1]; 4.43 µM (inactive) in assay [2]; > 100 µM (inactive) in [3]; > 100 µM (inactive) in assay [4]; 0.887 µM in assay [6]; 26 µM (inactive) in assay [7]. Further, the GI50 is > 100 µM (inactive) in assay [8]; 5.92 µM (inactive) in assay [9]; > 100 µM (inactive) in assay [10]; 0.859 µM (active) in assay [11]; 2.9 µM (inactive) in assay [12]; > 100 µM (inactive) in assay [13]. Moreover, the GI50 in assay [14] is > 100 µM (inactive); in [15] it was 62.4 µM (inactive); in assay [16], 30.3 µM (inactive); in assay [17] it was > 100 µM (inactive); in assay [18], > 100 µM (inactive); in assay [19], > 100 µM (inactive). Besides, the GI50 in assay [20] was 33.5 µM (inactive).

In the case of `Cc1c(-c2cc(-c3ccccc3)n[nH]c2=O)c2ccccc2n1C`, the GI50 is > 100 µM (inactive) in [1]; > 100 µM (inactive) in assay [2]; > 100 µM (inactive) in [3]; > 100 µM (inactive) in assay [4]; over 100 µM in [6]; > 100 µM (inactive) in assay [7]. The GI50 in assay [8], in assay [9], in assay [10], in [11], in assay [12] and in assay [13] was > 100 µM (inactive) each time. Besides, the GI50 in assay [14], in assay [15], in assay [16], in assay [17], in assay [18] and in assay [19] was > 100 µM (inactive) throughout. The GI50 in assay [20] was > 100 µM (inactive).
